# Results reported in ChEMBL document CHEMBL6134848, “Deuteration Strategy-Inspired Design of Novel Diarylpyrimidine Derivatives as Potent Non-Nucleoside Reverse Transcriptase Inhibitors Featuring Improved Efficacy, Selectivity, and Druggability” (J Med Chem, 2025).
# pEC50, pIC50: −log10 of the molar value.
# Legend:
# [1] = Selectivity index, ratio of CC50 for cytotoxicity against human MT4 cells to EC50 for antiviral activity against wild-type HIV-1 IIIB infected in human MT4 cells; type: toxicity, cell-based; settings: read-out: Ratio CC50/EC50
# [2] = Acute toxicity in ICR mouse assessed as pathological change in kidney at 2000 mg/kg, IG measured for 14 days by H and E staining based analysis; type: organism-based; settings: in vivo, po, 336 h, time 14 day
# [3] = Clearance in Sprague-Dawley rat at 1 mg/kg, iv measured for 0.083 to 24 hrs by LC-MS/MS analysis; type: ADME, organism-based; settings: in vivo, time 0.083-24 hrs
# [4] = AUC (0 to infinity) in Sprague-Dawley rat at 10 mg/kg, po measured for 0.083 to 24 hrs by LC-MS/MS analysis; type: ADME, organism-based; settings: in vivo, time 0.083-24 hrs
# [5] = system: Human immunodeficiency virus 1; test: Antiviral activity against wild-type HIV-1 IIIB infected in human MT4 cells assessed as protection against virus-induced cytopathicity measured after 5 days post-infection by MTT assay; type: functional, organism-based; settings: Human immunodeficiency virus 1, IIIB, MT4, 120 h
# [6] = Acute toxicity in ICR mouse assessed as pathological change in heart at 2000 mg/kg, IG measured for 14 days by H and E staining based analysis; type: organism-based; settings: in vivo, po, 336 h, time 14 day
# [7] = target: T1, Cytochrome P450 3A4 (Homo sapiens, UniProt P08684); test: Inhibition of CYP3A4 in human liver microsomes using testosterone as substrate incubated for 15 to 45 mins by; type: ADME, Microsome
# T1 sequence (P08684 whole entry): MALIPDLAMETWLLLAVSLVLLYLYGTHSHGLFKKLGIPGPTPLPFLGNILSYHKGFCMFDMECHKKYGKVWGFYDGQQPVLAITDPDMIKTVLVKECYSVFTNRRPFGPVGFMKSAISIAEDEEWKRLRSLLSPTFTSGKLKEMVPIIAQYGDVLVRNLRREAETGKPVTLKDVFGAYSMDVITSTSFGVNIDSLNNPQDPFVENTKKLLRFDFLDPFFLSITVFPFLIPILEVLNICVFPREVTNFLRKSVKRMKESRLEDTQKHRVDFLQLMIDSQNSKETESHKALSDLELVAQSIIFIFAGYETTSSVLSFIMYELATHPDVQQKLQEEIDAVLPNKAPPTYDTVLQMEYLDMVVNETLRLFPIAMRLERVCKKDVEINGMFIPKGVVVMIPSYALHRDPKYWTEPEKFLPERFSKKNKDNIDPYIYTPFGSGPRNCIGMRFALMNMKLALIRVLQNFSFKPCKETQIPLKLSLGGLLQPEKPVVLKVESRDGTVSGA
# [8] = Metabolic stability in human liver microsomes assessed as half life at 1 uM measured up to 45 mins by LC/MS/MS analysis; type: ADME, Microsome; settings: microsomes, 0.75 h, 1 µM
# [9] = MRT (0 to infinity) in Sprague-Dawley rat at 1 mg/kg, iv measured for 0.083 to 24 hrs by LC-MS/MS analysis; type: ADME, organism-based; settings: in vivo, time 0.083-24 hrs
# [10] = Tmax in Sprague-Dawley rat at 10 mg/kg, po measured for 0.083 to 24 hrs by LC-MS/MS analysis; type: ADME, organism-based; settings: in vivo, time 0.083-24 hrs
# [11] = AUC (0 to t) in Sprague-Dawley rat at 1 mg/kg, iv measured for 0.083 to 24 hrs by LC-MS/MS analysis; type: ADME, organism-based; settings: in vivo, time 0.083-24 hrs
# [12] = Protein binding in human plasma at 1 uM incubated for 6 hrs; type: ADME, cell-free; settings: read-out: PPB (converted)
# [13] = Metabolic stability in rat liver microsomes assessed as half life at 1 uM measured up to 45 mins by LC/MS/MS analysis; type: ADME, Microsome; settings: 0.75 h
# [14] = Acute toxicity in ICR mouse assessed as pathological change in lung at 2000 mg/kg, IG measured for 14 days by H and E staining based analysis; type: organism-based; settings: in vivo, po, 336 h, time 14 day
# [15] = target: T1, Cytochrome P450 3A4; test: Inhibition of CYP3A4 in human liver microsomes using midazolam as substrate incubated for 15 to 45 mins by; type: ADME, Microsome
# [16] = system: Human immunodeficiency virus 1; test: Antiviral activity against drug-resistant HIV-1 harboring RT RES056 mutant infected in human MT4 cells assessed as protection against virus-induced cytopathicity measured after 5 days post-infection by MTT assay; type: functional, organism-based; settings: Human immunodeficiency virus 1, MT4, 120 h
# [17] = Acute toxicity in ICR mouse assessed as body weight change at 2000 mg/kg, IG measured for 14 days; type: organism-based; settings: in vivo, po, 336 h, time 14 day
# [18] = Stability in human liver microsomes assessed as compound remaining at […] preincubated for 30 mins in ice-water bath followed by incubation at 37 degreeC for 5 mins and further addition of NADPH/UDPGA measured 20.86 mins by LC-MS/MS analysis; type: ADME, Microsome; settings: time 55.86 min, read-out: Stability
# [19] = Protein binding in human plasma assessed as unbound fraction at 1 uM incubated for 6 hrs; type: ADME, cell-free
# [20] = system: Human immunodeficiency virus 1; test: Potency index, ratio of NVP EC50 to test compound EC50 for antiviral activity against wild-type HIV-1 IIIB infected in human MT4 cells assessed as protection against virus-induced cytopathicity measured after 5 days post-infection by MTT assay; type: functional
# [21] = Stability in human plasma assessed as compound remaining at 1 uM measured after 0.5 hrs by LC-MS/MS analysis; type: ADME, cell-free; settings: read-out: Stability
# [22] = MRT (0 to infinity) in Sprague-Dawley rat at 10 mg/kg, po measured for 0.083 to 24 hrs by LC-MS/MS analysis; type: ADME, organism-based; settings: in vivo, time 0.083-24 hrs
# [23] = system: Human immunodeficiency virus 1; test: Antiviral activity against drug-resistant HIV-1 harboring RT F227L/V106A mutant infected in human MT4 cells assessed as protection against virus-induced cytopathicity measured after 5 days post-infection by MTT assay; type: functional, organism-based; settings: Human immunodeficiency virus 1, MT4, 120 h
# [24] = system: Human immunodeficiency virus 1; test: Potency index, ratio of ETR EC50 to test compound EC50 for antiviral activity against wild-type HIV-1 IIIB infected in human MT4 cells assessed as protection against virus-induced cytopathicity measured after 5 days post-infection by MTT assay; type: functional
# [25] = AUC (0 to t) in Sprague-Dawley rat at 10 mg/kg, po measured for 0.083 to 24 hrs by LC-MS/MS analysis; type: ADME, organism-based; settings: in vivo, time 0.083-24 hrs
# [26] = Tmax in Sprague-Dawley rat at 1 mg/kg, iv measured for 0.083 to 24 hrs by LC-MS/MS analysis; type: ADME, organism-based; settings: in vivo, time 0.083-24 hrs
# [27] = target: T2, Cytochrome P450 2C8 (Homo sapiens, UniProt P10632); test: Inhibition of CYP2C8 in human liver microsomes using amodiaquine as substrate incubated for 15 to 45 mins by; type: ADME, Microsome
# T2 sequence (P10632 whole entry): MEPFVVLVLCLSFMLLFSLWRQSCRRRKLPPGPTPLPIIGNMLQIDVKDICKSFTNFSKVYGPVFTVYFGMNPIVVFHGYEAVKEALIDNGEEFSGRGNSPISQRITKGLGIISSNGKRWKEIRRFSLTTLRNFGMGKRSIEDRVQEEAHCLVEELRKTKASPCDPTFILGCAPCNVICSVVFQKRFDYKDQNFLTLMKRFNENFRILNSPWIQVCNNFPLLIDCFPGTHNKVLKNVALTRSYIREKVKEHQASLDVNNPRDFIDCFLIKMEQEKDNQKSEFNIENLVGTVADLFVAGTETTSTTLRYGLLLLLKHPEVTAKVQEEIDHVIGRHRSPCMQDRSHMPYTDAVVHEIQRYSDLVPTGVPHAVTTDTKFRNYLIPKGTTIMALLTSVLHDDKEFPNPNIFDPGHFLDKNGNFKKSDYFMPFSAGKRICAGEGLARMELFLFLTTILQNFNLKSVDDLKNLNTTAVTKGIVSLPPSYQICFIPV
# [28] = Cmax in Sprague-Dawley rat at 10 mg/kg, po measured for 0.083 to 24 hrs by LC-MS/MS analysis; type: ADME, organism-based; settings: in vivo, time 0.083-24 hrs
# [29] = Half life in Sprague-Dawley rat at 1 mg/kg, iv measured for 0.083 to 24 hrs by LC-MS/MS analysis; type: ADME, organism-based; settings: in vivo, time 0.083-24 hrs
# [30] = Metabolic stability in dog liver microsomes assessed as half life at 1 uM measured up to 45 mins by LC/MS/MS analysis; type: ADME, Canis lupus familiaris, Microsome; settings: microsomes, 0.75 h, 1 µM
smiles,measurement,setting,value
[2H]C([2H])([2H])c1cc(C#N)cc(C([2H])([2H])[2H])c1Oc1nc(NC2CCN(Cc3ccc(S(N)(=O)=O)cc3)CC2)nc2ccsc12,selectivity ratio,[1],> 227000
same,Activity,[2],Non-toxic
same,clearance,[3],22.9 mL/min/kg
same,AUC(0-inf),[4],1800 ng·h/mL
same,pEC50,[5],9.00
same,Activity,[6],Non-toxic
same,pIC50,[7],< 5.00
same,t1/2,[8],18.6 min
same,MRT inf,[9],50.4 min
same,Tmax,[10],30 min
same,AUC(0-t),[11],727 ng·h/mL
same,"fraction unbound at 6 h, 1 µM",[12],0.005
same,t1/2,[13],19.2 min
same,Activity,[14],Non-toxic
same,pIC50,[15],< 5.00
same,pEC50,[16],7.12
same,Activity,[17],Non-toxic
same,remaining at 0.347667 h,[18],58.8%
same,Fu,[19],0.453%
same,Ratio EC50,[20],256
same,"remaining at 0.5 h, 1 µM",[21],98.9%
same,MRT inf,[22],161 min
same,pEC50,[23],8.35
same,Ratio EC50,[24],3.3
same,AUC(0-t),[25],1720 ng·h/mL
same,Tmax,[26],4.8 min
same,pIC50,[27],< 5.00
same,Cmax,[28],553 ng/mL
same,half-life,[29],58.2 min
same,t1/2,[30],20.4 min
